Biological target: Human PDE9 (PDE9A2) (Homo sapiens (Human), UniProt O76083)
Assay: PDE9 IMAP fluorescence polarization (FP) inhibition assay
Assay type: biochemical
Conditions: apparent inhibition constant; human PDE9A2, FAM-cGMP substrate 50 nM, room temperature
Procedure: The activity of the compounds in accordance with the present invention as PDE9 inhibitors may be readily determined without undue experimentation using a fluorescence polarization (FP) methodology that is well known in the art (Huang, W., et al., J. Biomol Screen, 2002, 7:215).
In a typical experiment the PDE9 inhibitory activity of the compounds of the present invention was determined in accordance with the following experimental method.
Human PDE9 (PDE9A2, GenBank Accession No. NM_001001567), full length with N-terminal GST tag, was purchased from BPS Bioscience. The fluorescence polarization assay for cyclic nucleotide phosphodiesterases was performed using an IMAP® FP kit supplied by Molecular Devices, Sunnyvale, CA (product #R8139). IMAP® technology has been applied previously to phosphodiesterase assays (Huang, W., et al., J. Biomol Screen, 2002, 7:215). Assays were performed at room temperature in 384-well microtiter plates with an incubation volume of 20.2 μL. Solutions of test compounds were prepared in DMSO and serially diluted with DMSO to yield 8 μL of each of 10 solutions differing by 3-fold in concentration, at 32 serial dilutions per plate. 100% inhibition is determined using a known PDE9 inhibitor, such as 1-(2-chlorophenyl)-6-[(2R)-3,3,3-trifluoro-2-methylpropyl]-1,5-dihydro-4H-pyrazolo[3,4-d]pyrimidine-4-one (BAY 73-6691) (Wunder et al, Mol. Pharmacol., 2005, 68 (6): 1775-81), (6-[(3S,4S)-4-methyl-1-(pyrimidin-2-ylmethyl) pyrrolidin-3-yl]-1-(tetrahydro-2H-pyran-4-yl)-1,5-dihydro-4H-pyrazolo[3,4-d]pyrimidin-4-one (PF-04447943) (Wager et al., ACS Chemical Neuroscience, 2010, 1:435-449). 0% of inhibition is determined by using DMSO (1% final concentrations). A Labcyte Echo 555 (Labcyte, Sunnyvale, CA) is used to dispense 200 nL from each well of the titration plate to the 384 well assay plate. Human PDE9A2 membrane preps were diluted to 1 ng/ml. […] PDE9 enzyme mix and compounds were mixed and incubated at room temperature for 30 min. Following which, FAMcGMP substrate was added, shaken and incubated for an additional 60 min at room temperature. The final concentration of human PDE9 membrane preparations were 0.5 ng/ml. The final concentration of FAM-cGMP was 50 nM. After the incubation period, the enzymatic reaction was stopped by addition of binding solution (IMAP-FP, Molecular Devices, comprised of 80% Solution A, 20% Solution B and a 1:600 dilution of binding reagent) to each well. The plates were shaken then incubated at room temperature for 1 h prior to determining the fluorescence polarization (mP) using a Perkin Elmer En Vision™ plate reader (Waltham, MA).
Fluorescence polarization (mP) was calculated from the parallel(S) and perpendicular (P) fluorescence of each sample well and the analogous values for the median control well, containing only substrate (So and Po), using the following equation: […]
Dose-inhibition profiles for each compound were characterized by fitting the mP data to a four-parameter equation given below. The apparent inhibition constant (KI), the maximum inhibition at the low plateau relative to “100% Inhibition Control” (Imax; e.g. 1=>same as this control), the minimum inhibition at the high plateau relative to the “0% Inhibition Control” (Imin, e.g. 0=>same as the no drug control) and the Hill slope (nH) are determined by a non-linear least squares fitting of the mP values as a function of dose of the compound using an in-house software based on the procedures described by Mosser et al., JALA, 2003, 8:54-63, using the following equation: […]
An apparent (Km) for FAM-labeled […] of 150 nM was determined in separate experiments through simultaneous variation of substrate and selected drug concentrations.

Chain of Human PDE9 (PDE9A2) (O76083 other isoform, or with tags, fused parts or gaps): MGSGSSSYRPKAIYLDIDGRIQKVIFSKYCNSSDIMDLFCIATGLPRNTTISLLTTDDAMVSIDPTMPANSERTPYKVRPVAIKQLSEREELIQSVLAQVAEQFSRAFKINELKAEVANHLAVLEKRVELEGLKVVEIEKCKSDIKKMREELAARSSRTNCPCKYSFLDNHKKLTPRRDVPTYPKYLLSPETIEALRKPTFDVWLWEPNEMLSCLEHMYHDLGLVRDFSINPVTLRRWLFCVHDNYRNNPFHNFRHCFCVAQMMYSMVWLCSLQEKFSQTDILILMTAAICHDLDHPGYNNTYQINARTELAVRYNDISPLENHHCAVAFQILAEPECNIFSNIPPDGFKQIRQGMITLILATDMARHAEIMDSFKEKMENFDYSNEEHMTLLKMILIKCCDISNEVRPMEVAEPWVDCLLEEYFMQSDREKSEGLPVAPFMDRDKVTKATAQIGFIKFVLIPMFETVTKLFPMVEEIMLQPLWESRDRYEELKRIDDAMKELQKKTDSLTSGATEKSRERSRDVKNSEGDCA

Row | SMILES | Ki
1 | CCC(c1ncc(C(F)F)cn1)N(C)c1nc2c(c(C#N)nn2C(C)c2ccc(C(F)(F)F)nc2)c(=O)[nH]1 (single isomer, unassigned) [Example 19, 6-[1-[5-(difluoromethyl)pyrimidin-2-yl]propyl-methyl-amino]-4-oxo-1-[1-[6-(trifluoromethyl)-3-pyridyl]ethyl]-5H-pyrazolo[3,4-d]pyrimidine-3-carbonitrile] | 7.36 nM
2 | CCC(c1ncc(C(F)F)cn1)N(C)c1nc2c(c(C#N)nn2C(C)c2ccc(C(F)(F)F)nc2)c(=O)[nH]1 (single isomer, unassigned) [Example 20, 6-[1-[5-(difluoromethyl)pyrimidin-2-yl]propyl-methyl-amino]-4-oxo-1-[1-[6-(trifluoromethyl)-3-pyridyl]ethyl]-5H-pyrazolo[3,4-d]pyrimidine-3-carbonitrile] | 1.57 nM
3 | CC(C)C(c1ncccn1)N(C)c1nc2c(c(C#N)nn2C(C)c2ccc(C(F)(F)F)nc2)c(=O)[nH]1 (single isomer, unassigned) [Example 21, 6-[methyl-(2-methyl-1-pyrimidin-2-yl-propyl)amino]-4-oxo-1-[1-[6-(trifluoromethyl)-3-pyridyl]ethyl]-5H-pyrazolo[3,4-d]pyrimidine-3-carbonitrile] | 15.2 nM
4 | CC(C)C(c1ncccn1)N(C)c1nc2c(c(C#N)nn2C(C)c2ccc(C(F)(F)F)nc2)c(=O)[nH]1 (single isomer, unassigned) [Example 22, 6-[methyl-(2-methyl-1-pyrimidin-2-yl-propyl)amino]-4-oxo-1-[1-[6-(trifluoromethyl)-3-pyridyl]ethyl]-5H-pyrazolo[3,4-d]pyrimidine-3-carbonitrile] | 6.5 nM
5 | CC(C)C(c1ncccn1)N(C)c1nc2c(c(C#N)nn2C(C)c2ccc(C(F)(F)F)nc2)c(=O)[nH]1 (single isomer, unassigned) [Example 23, 6-[methyl-(2-methyl-1-pyrimidin-2-yl-propyl)amino]-4-oxo-1-[1-[6-(trifluoromethyl)-3-pyridyl]ethyl]-5H-pyrazolo[3,4-d]pyrimidine-3-carbonitrile] | 0.6 nM
6 | CC(C)C(c1ncccn1)N(C)c1nc2c(c(C#N)nn2C(C)c2ccc(C(F)(F)F)nc2)c(=O)[nH]1 (single isomer, unassigned) [Example 24, 6-[methyl-(2-methyl-1-pyrimidin-2-yl-propyl)amino]-4-oxo-1-[1-[6-(trifluoromethyl)-3-pyridyl]ethyl]-5H-pyrazolo[3,4-d]pyrimidine-3-carbonitrile] | 69.2 nM
7 | CC(c1ccc(C(F)(F)F)nc1)n1nc(C#N)c2c(=O)[nH]c(N(C)C(c3ncccn3)C3CC3)nc21 (single isomer, unassigned) [Example 25, 6-[[cyclopropyl(pyrimidin-2-yl)methyl]-methyl-amino]-4-oxo-1-[1-[6-(trifluoromethyl)-3-pyridyl]ethyl]-5H-pyrazolo[3,4-d]pyrimidine-3-carbonitrile] | 4.08 nM
8 | CC(c1ccc(C(F)(F)F)nc1)n1nc(C#N)c2c(=O)[nH]c(N(C)C(c3ncccn3)C3CC3)nc21 (single isomer, unassigned) [Example 26, 6-[[cyclopropyl(pyrimidin-2-yl)methyl]-methyl-amino]-4-oxo-1-[1-[6-(trifluoromethyl)-3-pyridyl]ethyl]-5H-pyrazolo[3,4-d]pyrimidine-3-carbonitrile] | 52.9 nM
9 | CC(c1ccc(C(F)(F)F)nc1)n1nc(C#N)c2c(=O)[nH]c(N(C)C(c3ncccn3)C3CC3)nc21 (single isomer, unassigned) [Example 27, 6-[[cyclopropyl(pyrimidin-2-yl)methyl]-methyl-amino]-4-oxo-1-[1-[6-(trifluoromethyl)-3-pyridyl]ethyl]-5H-pyrazolo[3,4-d]pyrimidine-3-carbonitrile] | 6.67 nM
10 | CC(c1ccc(C(F)(F)F)nc1)n1nc(C#N)c2c(=O)[nH]c(N(C)C(c3ncccn3)C3CC3)nc21 (single isomer, unassigned) [Example 28, 6-[[cyclopropyl(pyrimidin-2-yl)methyl]-methyl-amino]-4-oxo-1-[1-[6-(trifluoromethyl)-3-pyridyl]ethyl]-5H-pyrazolo[3,4-d]pyrimidine-3-carbonitrile] | 20.3 nM
11 | CC(c1ccc(C(F)(F)F)nc1)n1nc(C#N)c2c(=O)[nH]c(N(C)C(c3ncccn3)C3CCC3)nc21 (single isomer, unassigned) [Example 29, 6-[[cyclobutyl(pyrimidin-2-yl)methyl]-methyl-amino]-4-oxo-1-[1-[6-(trifluoromethyl)-3-pyridyl]ethyl]-5H-pyrazolo[3,4-a]pyrimidine-3-carbonitrile] | 8.96 nM
12 | CC(c1ccc(C(F)(F)F)nc1)n1nc(C#N)c2c(=O)[nH]c(N(C)C(c3ncccn3)C3CCC3)nc21 (single isomer, unassigned) [Example 30, 6-[[cyclobutyl(pyrimidin-2-yl)methyl]-methyl-amino]-4-oxo-1-[1-[6-(trifluoromethyl)-3-pyridyl]ethyl]-5H-pyrazolo[3,4-a]pyrimidine-3-carbonitrile] | 16.4 nM
13 | CC(c1ccc(C(F)(F)F)nc1)n1nc(C#N)c2c(=O)[nH]c(N(C)C(c3ncccn3)C3CCC3)nc21 (single isomer, unassigned) [Example 31, 6-[[cyclobutyl(pyrimidin-2-yl)methyl]-methyl-amino]-4-oxo-1-[1-[6-(trifluoromethyl)-3-pyridyl]ethyl]-5H-pyrazolo[3,4-a]pyrimidine-3-carbonitrile] | 1.2 nM
14 | CCC(c1ccc(F)cn1)N(C)c1nc2c(c(C#N)nn2C(C)c2ccc(C(F)(F)F)nc2)c(=O)[nH]1 (single isomer, unassigned) [Example 33, 6-[1-(5-fluoro-2-pyridyl)propyl-methyl-amino]-4-oxo-1-[1-[6-(trifluoromethyl)-3-pyridyl]ethyl]-5H-pyrazolo[3,4-d]pyrimidine-3-carbonitrile] | 0.59 nM
15 | CCC(c1ccc(F)cn1)N(C)c1nc2c(c(C#N)nn2C(C)c2ccc(C(F)(F)F)nc2)c(=O)[nH]1 (single isomer, unassigned) [Example 34, 6-[1-(5-fluoro-2-pyridyl)propyl-methyl-amino]-4-oxo-1-[1-[6-(trifluoromethyl)-3-pyridyl]ethyl]-5H-pyrazolo[3,4-d]pyrimidine-3-carbonitrile] | 0.16 nM
16 | CCC(c1ccc(F)cn1)N(C)c1nc2c(c(C#N)nn2C(C)c2ccc(C(F)(F)F)nc2)c(=O)[nH]1 (single isomer, unassigned) [Example 35, 6-[1-(5-fluoro-2-pyridyl)propyl-methyl-amino]-4-oxo-1-[1-[6-(trifluoromethyl)-3-pyridyl]ethyl]-5H-pyrazolo[3,4-d]pyrimidine-3-carbonitrile] | 7.12 nM
17 | CCC(c1ccc(F)cn1)N(C)c1nc2c(c(C#N)nn2C(C)c2ccc(C(F)(F)F)nc2)c(=O)[nH]1 (single isomer, unassigned) [Example 36, 6-[1-(5-fluoro-2-pyridyl)propyl-methyl-amino]-4-oxo-1-[1-[6-(trifluoromethyl)-3-pyridyl]ethyl]-5H-pyrazolo[3,4-d]pyrimidine-3-carbonitrile] | 19.9 nM
18 | CCC(c1ncc(F)cn1)N(C)c1nc2c(c(C#N)nn2C(C)C2CCOCC2)c(=O)[nH]1 (single isomer, unassigned) [Example 37, 6-[1-(5-fluoropyrimidin-2-yl)propyl-methyl-amino]-4-oxo-1-(1-tetrahydropyran-4-ylethyl)-5H-pyrazolo[3,4-d]pyrimidine-3-carbonitrile] | 2.67 nM

Source: patent publication US20260001888A1, “PYRAZOLOPYRIMIDINE PDE9 INHIBITORS” (Merck Sharp & Dohme LLC, priority 2018, published 2026)
